Data set [1] has as its system Cynomolgus monkey. Put plainly: Induction of miosis in sc dosed cynomolgus monkey. Type of data set: organism-based, Macaca fascicularis. To be noted: in vivo.
Data set [2] has as its system Cynomolgus monkey. The experiment in a line: Cardiotoxicity in telemetered cynomolgus monkey assessed as prolongation of QRS duration at 1.5 to 6 mg/kg, sc measured after 1 to 4 hrs by telemetry method. Also noted: route subcutaneous. As to conditions: in vivo. In kind it is toxicity, organism-based, Macaca fascicularis.
The subject of data set [3] is Rattus norvegicus. Put plainly: Induction of catalepsy in Sprague-Dawley rats at 10 to 30 mg/kg, sc measured after 60 mins. As to conditions: in vivo, 1 h. In kind it is organism-based. More on the design: dose 10-30 mg/kg, route subcutaneous.
For data set [4], the system named is Rattus norvegicus. Put plainly: Antipsychotic activity in Sprague-Dawley rats assessed as reversal of methamphetamine-induced hyperlocomotion at 1 to 10 mg/kg, sc administered 30 mins prior to methamphetamine injection measured for 80 mins from 10 mins after methamphetamine challenge. In kind it is functional, organism-based.
Data set [5] addresses T1, Muscarinic acetylcholine receptor M4 (Homo sapiens) (UniProt P08173).
T1 sequence (whole entry): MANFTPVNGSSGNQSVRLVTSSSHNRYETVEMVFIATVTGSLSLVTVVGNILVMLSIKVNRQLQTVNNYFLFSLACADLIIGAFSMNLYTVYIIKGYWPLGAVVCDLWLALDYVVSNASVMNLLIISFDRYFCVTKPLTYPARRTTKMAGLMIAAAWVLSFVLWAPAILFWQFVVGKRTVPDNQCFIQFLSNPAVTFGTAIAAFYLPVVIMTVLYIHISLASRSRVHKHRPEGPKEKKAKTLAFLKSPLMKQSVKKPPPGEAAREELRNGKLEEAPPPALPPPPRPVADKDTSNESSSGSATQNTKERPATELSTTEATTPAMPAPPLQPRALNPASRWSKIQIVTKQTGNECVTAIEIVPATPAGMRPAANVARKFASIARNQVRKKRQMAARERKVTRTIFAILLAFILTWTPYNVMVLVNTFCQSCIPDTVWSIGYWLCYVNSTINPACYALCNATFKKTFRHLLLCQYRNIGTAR
The experiment in a line: (§1) Partial agonist activity at human M4 receptor co-expressed with Galpha16 in CHO cells assessed as calcium mobilization after 60 mins by FLIPR assay. Type of data set: functional, cell-based. (In general: Calcium flux is commonly read through the fluorescence of an indicator in the cells.)

Data set [6] deals with T2, Muscarinic acetylcholine receptor M4 (Homo sapiens, UniProt P08173).
T2 sequence (P08173 whole entry): T1 sequence (whole entry)
Described as §1. Type of data set: functional, cell-based.

Calls of active or inactive are those of the source. No cut-off for these calls is given here.

As usually defined, the EC50 is the concentration that produces a half-maximal response.

`CCOC(=O)N1[C@@H]2CC[C@H]1C[C@H](CN1CC[C@H](N3C(=O)Cc4ccccc43)C1)C2`: the Activity result is “Toxic” with Cynomolgus monkey [1], “Non-toxic” in the data set with Cynomolgus monkey [2] and “Non-toxic” in the data set on Rattus norvegicus [3]. Besides, the inhibition entry with Rattus norvegicus [4] is “Active”. For the same molecule, in data set [5], the Intrinsic activity was found to be 42%. In addition, the EC50 in data set [6] came to 29 nM.

For the origin of these results see ChEMBL document CHEMBL2331215, “Discovery of novel N-substituted oxindoles as selective m1 and m4 muscarinic acetylcholine receptors partial agonists” (ACS Med Chem Lett, 2013).
